≈ marks a conversion by molar mass, not a printed value. Square brackets hold non-standard residues; d marks the D form. Peptide text beside a SMILES is read from it. ξ: configuration not given here. Pro(3ξ,4ξ-(CH2)4) = O=C(O)[C@H]1NCC2CCCCC21; Tic = O=C(O)[C@@H]1Cc2ccccc2CN1; Dab = NCC[C@H](N)C(=O)O; Dap = NC[C@H](N)C(=O)O; βAla = NCCC(=O)O
Columns and labels:
Format in all cases: functional
[1] = tested on: Klebsiella aerogenes; test: Antibacterial activity against Enterobacter aerogenes after 24 hrs by broth microdilution method
[2] = tested on: Acinetobacter baumannii; test: Antibacterial activity against Acinetobacter baumannii WRAIR clinical isolate 13 after 24 hrs by broth microdilution method; details: WRAIR clinical isolate 13, 24 h
[3] = tested on: Enterococcus faecium; test: Antibacterial activity against Enterococcus faecium MMC4 after 24 hrs by broth microdilution method; details: MMC4, 24 h
[4] = tested on: Pseudomonas aeruginosa; test: Antibacterial activity against Pseudomonas aeruginosa PAO1 after 24 hrs by broth microdilution method; details: PAO1, 24 h
[5] = tested on: Klebsiella pneumoniae; test: Antibacterial activity against Klebsiella pneumoniae BAMS clinical isolate 07-18 after 24 hrs by broth microdilution method; details: BAMS clinical isolate 07-18, 24 h
[6] = tested on: Staphylococcus aureus; test: Antibacterial activity against methicillin-sensitive Staphylococcus aureus UAMS-1 after 24 hrs by broth microdilution method; details: UAMS-1, 24 h

SMILES	MIC [1] [µg/mL]	MIC [2] [µg/mL]	MIC [3] [µg/mL]	MIC [4] [µg/mL]	MIC [5] [µg/mL]	MIC [6] [µg/mL]	MBC [1] [µg/mL]	MBC [2] [µg/mL]	MBC [3] [µg/mL]	MBC [4] [µg/mL]	MBC [5] [µg/mL]	MBC [6] [µg/mL]
CC(C)C[C@H](NC(=O)[C@@H](N)CCCCN)C(=O)N1Cc2ccccc2C[C@H]1C(=O)N1CC2CCCCC2[C@H]1C(=O)NCC(=O)N[C@@H](CCCCN)C(=O)N1Cc2ccccc2C[C@H]1C(=O)N1CC2CCCCC2[C@H]1C(=O)N[C@@H](Cc1ccccc1)C(=O)N1Cc2ccccc2C[C@H]1C(=O)N1CC2CCCCC2[C@H]1C(=O)NCC(=O)N[C@@H](CCCCN)C(=O)N1Cc2ccccc2C[C@H]1C(=O)N1CC2CCCCC2[C@H]1C(=O)N[C@@H](Cc1ccccc1)C(=O)N1Cc2ccccc2C[C@H]1C(=O)N1CC2CCCCC2[C@H]1C(=O)NCC(=O)N[C@@H](CCCCN)C(=O)N1Cc2ccccc2C[C@H]1C(=O)N1CC2CCCCC2[C@H]1C(=O)N[C@@H](CCCCN)C(=O)N[C@@H](CCCCN)C(=O)N[C@@H](CCCCN)C(=O)N[C@@H](CCCCN)C(N)=O (some centres undefined) (H-KL[Tic][Pro(3ξ,4ξ-(CH2)4)]GK[Tic][Pro(3ξ,4ξ-(CH2)4)]F[Tic][Pro(3ξ,4ξ-(CH2)4)]GK[Tic][Pro(3ξ,4ξ-(CH2)4)]F[Tic][Pro(3ξ,4ξ-(CH2)4)]GK[Tic][Pro(3ξ,4ξ-(CH2)4)]KKKK-NH2)	> 100	12.5 (≈ 3.59 µM)	6.25 (≈ 1.79 µM)	> 100	> 100	50 (≈ 14.4 µM)	> 100	50 (≈ 14.4 µM)	25 (≈ 7.18 µM)	> 100	100 (≈ 28.7 µM)	50 (≈ 14.4 µM)
CC(C)C[C@H](NC(=O)[C@@H](N)CCCCN)C(=O)N1Cc2ccccc2C[C@H]1C(=O)N1CC2CCCCC2[C@H]1C(=O)N[C@@H](CCCCN)C(=O)NCC(=O)N1Cc2ccccc2C[C@H]1C(=O)N1CC2CCCCC2[C@H]1C(=O)N[C@@H](Cc1ccccc1)C(=O)N1Cc2ccccc2C[C@H]1C(=O)N1CC2CCCCC2[C@H]1C(=O)N[C@@H](CCCCN)C(=O)NCC(=O)N1Cc2ccccc2C[C@H]1C(=O)N1CC2CCCCC2[C@H]1C(=O)N[C@@H](Cc1ccccc1)C(=O)N1Cc2ccccc2C[C@H]1C(=O)N1CC2CCCCC2[C@H]1C(=O)N[C@@H](CCCCN)C(=O)NCC(=O)N1Cc2ccccc2C[C@H]1C(=O)N1CC2CCCCC2[C@H]1C(=O)N[C@@H](CCCCN)C(=O)N[C@@H](CCCCN)C(=O)N[C@@H](CCCCN)C(=O)N[C@@H](CCCCN)C(N)=O (some centres undefined) (H-KL[Tic][Pro(3ξ,4ξ-(CH2)4)]KG[Tic][Pro(3ξ,4ξ-(CH2)4)]F[Tic][Pro(3ξ,4ξ-(CH2)4)]KG[Tic][Pro(3ξ,4ξ-(CH2)4)]F[Tic][Pro(3ξ,4ξ-(CH2)4)]KG[Tic][Pro(3ξ,4ξ-(CH2)4)]KKKK-NH2)	> 100	12.5 (≈ 3.59 µM)	6.25 (≈ 1.79 µM)	50 (≈ 14.4 µM)	50 (≈ 14.4 µM)	50 (≈ 14.4 µM)	> 100	12.5 (≈ 3.59 µM)	6.25 (≈ 1.79 µM)	50 (≈ 14.4 µM)	100 (≈ 28.7 µM)	50 (≈ 14.4 µM)
CC(C)C[C@H](NC(=O)[C@@H](N)CCCCN)C(=O)N1Cc2ccccc2C[C@H]1C(=O)N1CC2CCCCC2[C@H]1C(=O)N[C@@H](CCCCN)C(=O)N1Cc2ccccc2C[C@H]1C(=O)N1CC2CCCCC2[C@H]1C(=O)N[C@@H](Cc1ccccc1)C(=O)N1Cc2ccccc2C[C@H]1C(=O)N1CC2CCCCC2[C@H]1C(=O)N[C@@H](CCCCN)C(=O)N1Cc2ccccc2C[C@H]1C(=O)N1CC2CCCCC2[C@H]1C(=O)N[C@@H](Cc1ccccc1)C(=O)N1Cc2ccccc2C[C@H]1C(=O)N1CC2CCCCC2[C@H]1C(=O)N[C@@H](CCCCN)C(=O)N1Cc2ccccc2C[C@H]1C(=O)N1CC2CCCCC2[C@H]1C(=O)N[C@@H](CCCCN)C(=O)N[C@@H](CCCNC(=N)N)C(N)=O (some centres undefined) (H-KL[Tic][Pro(3ξ,4ξ-(CH2)4)]K[Tic][Pro(3ξ,4ξ-(CH2)4)]F[Tic][Pro(3ξ,4ξ-(CH2)4)]K[Tic][Pro(3ξ,4ξ-(CH2)4)]F[Tic][Pro(3ξ,4ξ-(CH2)4)]K[Tic][Pro(3ξ,4ξ-(CH2)4)]KR-NH2)	> 100	100 (≈ 32.4 µM)	12.5 (≈ 4.05 µM)	> 100	> 100	50 (≈ 16.2 µM)	> 100	> 100	25 (≈ 8.11 µM)	> 100	> 100	50 (≈ 16.2 µM)
CC(C)C[C@H](NC(=O)[C@@H](N)CN)C(=O)N1Cc2ccccc2C[C@H]1C(=O)N1CC2CCCCC2[C@H]1C(=O)N[C@@H](CN)C(=O)N1Cc2ccccc2C[C@H]1C(=O)N1CC2CCCCC2[C@H]1C(=O)N[C@@H](Cc1ccccc1)C(=O)N1Cc2ccccc2C[C@H]1C(=O)N1CC2CCCCC2[C@H]1C(=O)N[C@@H](CN)C(=O)N1Cc2ccccc2C[C@H]1C(=O)N1CC2CCCCC2[C@H]1C(=O)N[C@@H](Cc1ccccc1)C(=O)N1Cc2ccccc2C[C@H]1C(=O)N1CC2CCCCC2[C@H]1C(=O)N[C@@H](CN)C(=O)N1Cc2ccccc2C[C@H]1C(=O)N1CC2CCCCC2[C@H]1C(=O)N[C@@H](CN)C(=O)N[C@@H](CN)C(=O)N[C@@H](CN)C(=O)N[C@@H](CN)C(N)=O (some centres undefined) (H-[Dap]L[Tic][Pro(3ξ,4ξ-(CH2)4)][Dap][Tic][Pro(3ξ,4ξ-(CH2)4)]F[Tic][Pro(3ξ,4ξ-(CH2)4)][Dap][Tic][Pro(3ξ,4ξ-(CH2)4)]F[Tic][Pro(3ξ,4ξ-(CH2)4)][Dap][Tic][Pro(3ξ,4ξ-(CH2)4)][Dap][Dap][Dap][Dap]-NH2)	100 (≈ 33.6 µM)	12.5 (≈ 4.2 µM)	12.5 (≈ 4.2 µM)	50 (≈ 16.8 µM)	100 (≈ 33.6 µM)	50 (≈ 16.8 µM)	100 (≈ 33.6 µM)	50 (≈ 16.8 µM)	25 (≈ 8.4 µM)	100 (≈ 33.6 µM)	100 (≈ 33.6 µM)	100 (≈ 33.6 µM)

Stronger by MIC [1], values ahead:

MIC [1] [µg/mL]	MIC [2] [µg/mL]	MIC [3] [µg/mL]	MIC [4] [µg/mL]	MIC [5] [µg/mL]	MIC [6] [µg/mL]	SMILES	MBC [1] [µg/mL]	MBC [2] [µg/mL]	MBC [3] [µg/mL]	MBC [4] [µg/mL]	MBC [5] [µg/mL]	MBC [6] [µg/mL]
50 (≈ 13.9 µM)	12.5 (≈ 3.47 µM)	6.25 (≈ 1.74 µM)	50 (≈ 13.9 µM)	50 (≈ 13.9 µM)	50 (≈ 13.9 µM)	CC(C)C[C@H](NC(=O)[C@@H](N)CCCCN)C(=O)N1Cc2ccccc2C[C@H]1C(=O)N1CC2CCCCC2[C@H]1C(=O)NCC(=O)N[C@@H](CCCCN)C(=O)N1Cc2ccccc2C[C@H]1C(=O)N1CC2CCCCC2[C@H]1C(=O)NCC(=O)N[C@@H](Cc1ccccc1)C(=O)N1Cc2ccccc2C[C@H]1C(=O)N1CC2CCCCC2[C@H]1C(=O)NCC(=O)N[C@@H](CCCCN)C(=O)N1Cc2ccccc2C[C@H]1C(=O)N1CC2CCCCC2[C@H]1C(=O)NCC(=O)N[C@@H](Cc1ccccc1)C(=O)N1Cc2ccccc2C[C@H]1C(=O)N1CC2CCCCC2[C@H]1C(=O)NCC(=O)N[C@@H](CCCCN)C(=O)N1Cc2ccccc2C[C@H]1C(=O)N1CC2CCCCC2[C@H]1C(=O)N[C@@H](CCCCN)C(=O)N[C@@H](CCCCN)C(=O)N[C@@H](CCCCN)C(=O)N[C@@H](CCCCN)C(N)=O (some centres undefined) (H-KL[Tic][Pro(3ξ,4ξ-(CH2)4)]GK[Tic][Pro(3ξ,4ξ-(CH2)4)]GF[Tic][Pro(3ξ,4ξ-(CH2)4)]GK[Tic][Pro(3ξ,4ξ-(CH2)4)]GF[Tic][Pro(3ξ,4ξ-(CH2)4)]GK[Tic][Pro(3ξ,4ξ-(CH2)4)]KKKK-NH2)	50 (≈ 13.9 µM)	12.5 (≈ 3.47 µM)	25 (≈ 6.95 µM)	50 (≈ 13.9 µM)	50 (≈ 13.9 µM)	50 (≈ 13.9 µM)
50 (≈ 13.8 µM)	6.25 (≈ 1.72 µM)	6.25 (≈ 1.72 µM)	25 (≈ 6.9 µM)	50 (≈ 13.8 µM)	50 (≈ 13.8 µM)	CC(C)C[C@H](NC(=O)[C@@H](N)CCCCN)C(=O)N1Cc2ccccc2C[C@H]1C(=O)N1CC2CCCCC2[C@H]1C(=O)NCC(=O)N[C@@H](CCCCN)C(=O)N1Cc2ccccc2C[C@H]1C(=O)N1CC2CCCCC2[C@H]1C(=O)NCCC(=O)N[C@@H](Cc1ccccc1)C(=O)N1Cc2ccccc2C[C@H]1C(=O)N1CC2CCCCC2[C@H]1C(=O)NCC(=O)N[C@@H](CCCCN)C(=O)N1Cc2ccccc2C[C@H]1C(=O)N1CC2CCCCC2[C@H]1C(=O)NCCC(=O)N[C@@H](Cc1ccccc1)C(=O)N1Cc2ccccc2C[C@H]1C(=O)N1CC2CCCCC2[C@H]1C(=O)NCC(=O)N[C@@H](CCCCN)C(=O)N1Cc2ccccc2C[C@H]1C(=O)N1CC2CCCCC2[C@H]1C(=O)N[C@@H](CCCCN)C(=O)N[C@@H](CCCCN)C(=O)N[C@@H](CCCCN)C(=O)N[C@@H](CCCCN)C(N)=O (some centres undefined) (H-KL[Tic][Pro(3ξ,4ξ-(CH2)4)]GK[Tic][Pro(3ξ,4ξ-(CH2)4)][βAla]F[Tic][Pro(3ξ,4ξ-(CH2)4)]GK[Tic][Pro(3ξ,4ξ-(CH2)4)][βAla]F[Tic][Pro(3ξ,4ξ-(CH2)4)]GK[Tic][Pro(3ξ,4ξ-(CH2)4)]KKKK-NH2)	100 (≈ 27.6 µM)	25 (≈ 6.9 µM)	25 (≈ 6.9 µM)	50 (≈ 13.8 µM)	50 (≈ 13.8 µM)	50 (≈ 13.8 µM)
50 (≈ 16.2 µM)	25 (≈ 8.1 µM)	12.5 (≈ 4.05 µM)	50 (≈ 16.2 µM)	50 (≈ 16.2 µM)	25 (≈ 8.1 µM)	CC(C)C[C@H](NC(=O)[C@@H](N)CCN)C(=O)N1Cc2ccccc2C[C@H]1C(=O)N1CC2CCCCC2[C@H]1C(=O)N[C@@H](CCN)C(=O)N1Cc2ccccc2C[C@H]1C(=O)N1CC2CCCCC2[C@H]1C(=O)N[C@@H](Cc1ccccc1)C(=O)N1Cc2ccccc2C[C@H]1C(=O)N1CC2CCCCC2[C@H]1C(=O)N[C@@H](CCN)C(=O)N1Cc2ccccc2C[C@H]1C(=O)N1CC2CCCCC2[C@H]1C(=O)N[C@@H](Cc1ccccc1)C(=O)N1Cc2ccccc2C[C@H]1C(=O)N1CC2CCCCC2[C@H]1C(=O)N[C@@H](CCN)C(=O)N1Cc2ccccc2C[C@H]1C(=O)N1CC2CCCCC2[C@H]1C(=O)N[C@@H](CCN)C(=O)N[C@@H](CCN)C(=O)N[C@@H](CCN)C(=O)N[C@@H](CCN)C(N)=O (some centres undefined) (H-[Dab]L[Tic][Pro(3ξ,4ξ-(CH2)4)][Dab][Tic][Pro(3ξ,4ξ-(CH2)4)]F[Tic][Pro(3ξ,4ξ-(CH2)4)][Dab][Tic][Pro(3ξ,4ξ-(CH2)4)]F[Tic][Pro(3ξ,4ξ-(CH2)4)][Dab][Tic][Pro(3ξ,4ξ-(CH2)4)][Dab][Dab][Dab][Dab]-NH2)	50 (≈ 16.2 µM)	100 (≈ 32.4 µM)	25 (≈ 8.1 µM)	100 (≈ 32.4 µM)	100 (≈ 32.4 µM)	25 (≈ 8.1 µM)
